Assay results from PubChem BioAssay AID2060602 (Molecular Pharmacology Branch, DTP, NCI, 2025).

Tested on: 648629-189-R-J1-PDC complex spheroids viability
Assay: Anticancer human tumor 648629-189-R-J1-PDC patient-derived bladder carcinoma cell line growth inhibition [CLK]
Conditions: for IC50: curve of first compound; for viability, T/C: stronger effect = lower value
Summary of the method: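 Patient-derived tumor cells grown as complex spheroids with HUVEC endothelial cells and mesenchymal stem cells, treated with drug combinations. Concentrations descend in half-log steps from near clinical Cmax, or from 10 microM if Cmax unknown.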

[1] = second compound 0.0316 µM, first compound 0.0316 µM
[2] = second compound 0.0316 µM, first compound 0.1 µM
[3] = second compound 0.0316 µM, first compound 0.316 µM
[4] = second compound 0.0316 µM, first compound 1 µM
[5] = second compound 0.0316 µM, first compound 3.16 µM
[6] = second compound 0.0316 µM, first compound 10 µM
[7] = second compound 0.1 µM, first compound 0.0316 µM
[8] = second compound 0.1 µM, first compound 0.1 µM
[9] = second compound 0.1 µM, first compound 0.316 µM
[10] = second compound 0.1 µM, first compound 1 µM
[11] = second compound 0.1 µM, first compound 3.16 µM
[12] = second compound 0.1 µM, first compound 10 µM
[13] = second compound 0.316 µM, first compound 0.0316 µM
[14] = second compound 0.316 µM, first compound 0.1 µM
[15] = second compound 0.316 µM, first compound 0.316 µM
[16] = second compound 0.316 µM, first compound 1 µM
[17] = second compound 0.316 µM, first compound 3.16 µM
[18] = second compound 0.316 µM, first compound 10 µM
[19] = second compound 1 µM, first compound 0.0316 µM
[20] = second compound 1 µM, first compound 0.1 µM
[21] = second compound 1 µM, first compound 0.316 µM
[22] = second compound 1 µM, first compound 1 µM
[23] = second compound 1 µM, first compound 3.16 µM
[24] = second compound 1 µM, first compound 10 µM
[25] = second compound 3.16 µM, first compound 0.0316 µM
[26] = second compound 3.16 µM, first compound 0.1 µM
[27] = second compound 3.16 µM, first compound 0.316 µM
[28] = second compound 3.16 µM, first compound 1 µM
[29] = second compound 3.16 µM, first compound 3.16 µM
[30] = second compound 3.16 µM, first compound 10 µM
[31] = second compound 10 µM, first compound 0.0316 µM
[32] = second compound 10 µM, first compound 0.1 µM
[33] = second compound 10 µM, first compound 0.316 µM
[34] = second compound 10 µM, first compound 1 µM
[35] = second compound 10 µM, first compound 3.16 µM
[36] = second compound 10 µM, first compound 10 µM
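Wherever viability, T/C is given: drug exposure lasted seven days before viability readout; 100% = DMSO vehicle control wells.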

Compound: CC(=O)O[C@H]1C(=O)[C@@]2(C)[C@H]([C@H](OC(=O)c3ccccc3)[C@]3(O)C[C@H](OC(=O)[C@H](O)[C@@H](NC(=O)c4ccccc4)c4ccccc4)C(C)=C1C3(C)C)[C@]1(OC(C)=O)CO[C@@H]1C[C@@H]2O + CN1CCN(c2cc(C(=O)Nc3cc4cc(-c5cnn(C)c5)ccc4cn3)ccn2)CC1
- IC50 (second compound 0.0316 µM): < 31.6 nM
- IC50 (second compound 0.1 µM): < 31.6 nM
- IC50 (second compound 0.316 µM): < 31.6 nM
- IC50 (second compound 1 µM): < 31.6 nM
- IC50 (second compound 3.16 µM): < 31.6 nM
- IC50 (second compound 10 µM): < 31.6 nM
- viability, T/C [1]: 10.9%
- viability, T/C [2]: 8.37%
- viability, T/C [3]: 9.02%
- viability, T/C [4]: 10.6%
- viability, T/C [5]: 7.39%
- viability, T/C [6]: 9.59%
- viability, T/C [7]: 7.2%
- viability, T/C [8]: 8.42%
- viability, T/C [9]: 6.79%
- viability, T/C [10]: 7.78%
- viability, T/C [11]: 8.57%
- viability, T/C [12]: 9.47%
- viability, T/C [13]: 9.01%
- viability, T/C [14]: 9.65%
- viability, T/C [15]: 10.1%
- viability, T/C [16]: 9.51%
- viability, T/C [17]: 8.91%
- viability, T/C [18]: 11.2%
- viability, T/C [19]: 0.14%
- viability, T/C [20]: 0.13%
- viability, T/C [21]: 0.87%
- viability, T/C [22]: 0.11%
- viability, T/C [23]: 0.47%
- viability, T/C [24]: 0.64%
- viability, T/C [25]: 0.07%
- viability, T/C [26]: 1.18%
- viability, T/C [27]: 0.13%
- viability, T/C [28]: 0.09%
- viability, T/C [29]: 0.11%
- viability, T/C [30]: 0.1%
- viability, T/C [31]: 0.1%
- viability, T/C [32]: 0.13%
- viability, T/C [33]: 0.2%
- viability, T/C [34]: 0.17%
- viability, T/C [35]: 1.53%
- viability, T/C [36]: 0.16%

Compound: COc1ccc([C@@H](O)c2cc(-c3ncnc4cc(N5CCOCC5)ccc34)c(F)cc2Cl)nn1 + CN1CCN(c2cc(C(=O)Nc3cc4cc(-c5cnn(C)c5)ccc4cn3)ccn2)CC1
- IC50 (second compound 0.0316 µM): 7780 nM
- IC50 (second compound 0.1 µM): 8170 nM
- IC50 (second compound 0.316 µM): < 31.6 nM
- IC50 (second compound 1 µM): < 31.6 nM
- IC50 (second compound 3.16 µM): < 31.6 nM
- IC50 (second compound 10 µM): < 31.6 nM
- viability, T/C [1]: 122%
- viability, T/C [2]: 107%
- viability, T/C [3]: 101%
- viability, T/C [4]: 95.2%
- viability, T/C [5]: 80%
- viability, T/C [6]: 41.2%
- viability, T/C [7]: 98%
- viability, T/C [8]: 89%
- viability, T/C [9]: 102%
- viability, T/C [10]: 88.9%
- viability, T/C [11]: 80.3%
- viability, T/C [12]: 43.4%
- viability, T/C [13]: 23%
- viability, T/C [14]: 26%
- viability, T/C [15]: 32.9%
- viability, T/C [16]: 29.2%
- viability, T/C [17]: 26.8%
- viability, T/C [18]: 19.9%
- viability, T/C [19]: 0.13%
- viability, T/C [20]: 0.23%
- viability, T/C [21]: 0.79%
- viability, T/C [22]: 0.13%
- viability, T/C [23]: 0.57%
- viability, T/C [24]: 0.16%
- viability, T/C [25]: 0.06%
- viability, T/C [26]: 0.6%
- viability, T/C [27]: 0.1%
- viability, T/C [28]: 0.08%
- viability, T/C [29]: 0.27%
- viability, T/C [30]: 1.67%
- viability, T/C [31]: 0.07%
- viability, T/C [32]: 0.13%
- viability, T/C [33]: 0.14%
- viability, T/C [34]: 0.13%
- viability, T/C [35]: 0.92%
- viability, T/C [36]: 0.65%

Compound: COc1cccc2c1C(=O)c1c(O)c3c(c(O)c1C2=O)CC(O)(C(=O)CO)CC3OC1CC(N)C(O)C(C)O1 (stereo not given) + CN1CCN(c2cc(C(=O)Nc3cc4cc(-c5cnn(C)c5)ccc4cn3)ccn2)CC1
- IC50 (second compound 0.0316 µM): < 31.6 nM
- IC50 (second compound 0.1 µM): < 31.6 nM
- IC50 (second compound 0.316 µM): < 31.6 nM
- IC50 (second compound 1 µM): < 31.6 nM
- IC50 (second compound 3.16 µM): < 31.6 nM
- IC50 (second compound 10 µM): < 31.6 nM
- viability, T/C [1]: 22.1%
- viability, T/C [2]: 17.5%
- viability, T/C [3]: 7.83%
- viability, T/C [4]: 0.53%
- viability, T/C [5]: 0.16%
- viability, T/C [6]: 1.13%
- viability, T/C [7]: 16.5%
- viability, T/C [8]: 14.2%
- viability, T/C [9]: 5%
- viability, T/C [10]: 0.45%
- viability, T/C [11]: 0.14%
- viability, T/C [12]: 0.19%
- viability, T/C [13]: 16.5%
- viability, T/C [14]: 13.5%
- viability, T/C [15]: 4.02%
- viability, T/C [16]: 0.15%
- viability, T/C [17]: 0.1%
- viability, T/C [18]: 0.12%
- viability, T/C [19]: 0.16%
- viability, T/C [20]: 0.14%
- viability, T/C [21]: 0.14%
- viability, T/C [22]: 0.08%
- viability, T/C [23]: 0.11%
- viability, T/C [24]: 0.08%
- viability, T/C [25]: 0.06%
- viability, T/C [26]: 0.1%
- viability, T/C [27]: 0.09%
- viability, T/C [28]: 0.07%
- viability, T/C [29]: 0.09%
- viability, T/C [30]: 0.08%
- viability, T/C [31]: 0.05%
- viability, T/C [32]: 0.61%
- viability, T/C [33]: 0.11%
- viability, T/C [34]: 0.12%
- viability, T/C [35]: 0.11%
- viability, T/C [36]: 0.1%

Compound: CCCS(=O)(=O)Nc1ccc(F)c(C(=O)c2c[nH]c3ncc(-c4ccc(Cl)cc4)cc23)c1F + CNC(=O)c1ccc(Nc2nc(OC3CCCC3)c3c(-c4ccc5nc(C)oc5c4)c[nH]c3n2)c(OC)c1
- IC50 (second compound 0.0316 µM): 6250 nM
- IC50 (second compound 0.1 µM): 5910 nM
- IC50 (second compound 0.316 µM): < 31.6 nM
- IC50 (second compound 1 µM): < 31.6 nM
- IC50 (second compound 3.16 µM): < 31.6 nM
- IC50 (second compound 10 µM): < 31.6 nM
- viability, T/C [1]: 117%
- viability, T/C [2]: 104%
- viability, T/C [3]: 111%
- viability, T/C [4]: 89.9%
- viability, T/C [5]: 98.7%
- viability, T/C [6]: 18.2%
- viability, T/C [7]: 75.2%
- viability, T/C [8]: 83.9%
- viability, T/C [9]: 94.8%
- viability, T/C [10]: 94.5%
- viability, T/C [11]: 105%
- viability, T/C [12]: 15.8%
- viability, T/C [13]: 27.9%
- viability, T/C [14]: 24.1%
- viability, T/C [15]: 33.6%
- viability, T/C [16]: 31.2%
- viability, T/C [17]: 27.6%
- viability, T/C [18]: 7.72%
- viability, T/C [19]: 19.7%
- viability, T/C [20]: 20.6%
- viability, T/C [21]: 23.2%
- viability, T/C [22]: 17.9%
- viability, T/C [23]: 21%
- viability, T/C [24]: 9.33%
- viability, T/C [25]: 16.6%
- viability, T/C [26]: 21.2%
- viability, T/C [27]: 19.1%
- viability, T/C [28]: 20.2%
- viability, T/C [29]: 20.9%
- viability, T/C [30]: 11.3%
- viability, T/C [31]: 20.6%
- viability, T/C [32]: 21%
- viability, T/C [33]: 19.1%
- viability, T/C [34]: 18.9%
- viability, T/C [35]: 18.7%
- viability, T/C [36]: 8.45%

Compound: COC1C=CCC(C)C(C)S(=O)(=O)NC(=O)c2ccc3c(c2)N(CC2CCC21)CC1(CCCc2cc(Cl)ccc21)CO3 (stereo not given) + CNC(=O)c1ccc(Nc2nc(OC3CCCC3)c3c(-c4ccc5nc(C)oc5c4)c[nH]c3n2)c(OC)c1
- IC50 (second compound 0.0316 µM): 1790 nM
- IC50 (second compound 0.1 µM): 1840 nM
- IC50 (second compound 0.316 µM): < 31.6 nM
- IC50 (second compound 1 µM): < 31.6 nM
- IC50 (second compound 3.16 µM): < 31.6 nM
- IC50 (second compound 10 µM): < 31.6 nM
- viability, T/C [1]: 107%
- viability, T/C [2]: 89%
- viability, T/C [3]: 91.6%
- viability, T/C [4]: 80.7%
- viability, T/C [5]: 20.1%
- viability, T/C [6]: 4.12%
- viability, T/C [7]: 82.8%
- viability, T/C [8]: 97.5%
- viability, T/C [9]: 83.8%
- viability, T/C [10]: 88.5%
- viability, T/C [11]: 16.3%
- viability, T/C [12]: 4.69%
- viability, T/C [13]: 27.2%
- viability, T/C [14]: 23.6%
- viability, T/C [15]: 24.2%
- viability, T/C [16]: 14%
- viability, T/C [17]: 8.44%
- viability, T/C [18]: 2.86%
- viability, T/C [19]: 19.5%
- viability, T/C [20]: 20.7%
- viability, T/C [21]: 16.3%
- viability, T/C [22]: 10.1%
- viability, T/C [23]: 6.11%
- viability, T/C [24]: 3.77%
- viability, T/C [25]: 21.5%
- viability, T/C [26]: 18.3%
- viability, T/C [27]: 16.7%
- viability, T/C [28]: 10.5%
- viability, T/C [29]: 6.62%
- viability, T/C [30]: 3.31%
- viability, T/C [31]: 17.1%
- viability, T/C [32]: 16.5%
- viability, T/C [33]: 15.2%
- viability, T/C [34]: 11.4%
- viability, T/C [35]: 6.23%
- viability, T/C [36]: 3.81%
